# Source: US10781467B2, “3-epimerase and polynucleotide encoding same” (priority 2016, dated 2020)
# Tests used:
# 3-epimerase [1] = assay: Metal dependence of 3-epimerase; type: biochemical, Thermogemmatispora carboxidivorans; conditions: 1 mM metal ion; for Relative activity (%): EDTA-treated 3-epimerase 0.04 U/mL, 10% (w/v) fructose, Tris pH 7.5, 60° C., 20 minutes, None = 100; for effect of metal ion on enzyme activity: fructose as substrate
# Description: In the current experimental examples, the enzyme activity is measured using fructose and sorbose as substrates. […] The sodium phosphate buffer solution containing fructose or sorbose is prepared by dissolving fructose or sorbose in a sodium phosphate buffer solution pH 7-8 to give a concentration of 60-70% (w/v). The sodium phosphate buffer solution containing fructose or sorbose is continuously added to a bioreactor maintained at 60° C. For the purpose of facilitating the comparison of enzyme activities, one unit of allulose-3-epimerase is defined as an amount of allulose-3-epimerase required to produce […] of D-allulose per minute at pH 7.5 and 60° C.; and one unit of tagatose-3-epimerase is defined as an amount of tagatose-3-epimerase required to produce […] of D-tagatose per minute at pH 7.5 and 60° C. The concentrations of fructose, D-allulose, sorbose, and D-tagatose are determined by high performance liquid chromatography with a BP-100 calcium ion […] column and an RI detector. The column temperature is 80° C., and the mobile phase is ultrapure water with a flow rate of 0.5 mL/min. In Example 3, in order to investigate the effect of metal ions on the 3-epimerase, the effect on the activity of 3-epimerase was measured with fructose as a substrate in the presence of various metal ions. The measurement was carried out by treating 3-epimerase with EDTA, and then adding 1 mM of various metal ions shown in Table 1 below to the 3-epimerase solution. The reaction catalyzed by 3-epimerase was carried out in a 50 mM Tris buffer pH 7.5 at 60° C. for 20 minutes, where the Tris buffer contained 0.04 U/mL 3-epimerase and 10% (w/v) fructose. The reaction solution was further heated at 100° C. for 15 minutes to terminate the reaction, and then the activity of the 3-epimerase was measured.
# 3-epimerase [2] = assay: Specificity of 3-epimerase for substrate; type: biochemical, Thermogemmatispora carboxidivorans; conditions: for 3-epimerase activity for substrate: 10 mM monosaccharide; for Relative activity (%): 0.04 U/ml 3-epimerase, 10 mM monosaccharide as substrate, pH 7.5, 60° C., 20 minutes
# Description: In the current experimental examples, the enzyme activity is measured using fructose and sorbose as substrates. In order to measure the enzyme activity, 3-epimerase is mixed with 50 mM sodium phosphate buffer solution (pH 7.5) containing 10% fructose or sorbose, reacted at 60° C. for 20 minutes, and then heated at 100° C. for 15 minutes to terminate the reaction. The sodium phosphate buffer solution containing fructose or sorbose is prepared by dissolving fructose or sorbose in a sodium phosphate buffer solution pH 7-8 to give a concentration of 60-70% (w/v). The sodium phosphate buffer solution containing fructose or sorbose is continuously added to a bioreactor maintained at 60° C. For the purpose of facilitating the comparison of enzyme activities, one unit of allulose-3-epimerase is defined as an amount of allulose-3-epimerase required to produce […] of D-allulose per minute at pH 7.5 and 60° C.; and one unit of tagatose-3-epimerase is defined as an amount of tagatose-3-epimerase required to produce […] of D-tagatose per minute at pH 7.5 and 60° C. The concentrations of fructose, D-allulose, sorbose, and D-tagatose are determined by high performance liquid chromatography with a BP-100 calcium ion […] column and an RI detector. The column temperature is 80° C., and the mobile phase is ultrapure water with a flow rate of 0.5 mL/min.
# The reaction catalyzed by 3-epimerase was carried out in a 50 mM sodium phosphate buffer solution pH 7.5 at 60° C. for 20 minutes, where the sodium phosphate buffer solution contained 0.04 U/ml 3-epimerase and 10 mM of various individual monosaccharides shown in Table 2 below. Each reaction solution was heated at 100° C. for 15 minutes to terminate the reaction, and then the enzyme activity of the 3-epimerase in each reaction solution was measured.
# [3] = in humans; cited from earlier work
Structure (SMILES),Relative activity (%) (3-epimerase [1]),effect of metal ion on enzyme activity (3-epimerase [1]),3-epimerase activity for substrate (3-epimerase [2]),Relative activity (%) (3-epimerase [2]),absorption rate [3]
[Ca+2] [Ca^2+],65%,,,,
[Co+2] [Co^2+],170%,enhance the enzyme activity,,,
[Cu+2] [Cu^2+],0%,inhibit the enzyme activity,,,
"O=C(CO)[C@H](O)[C@H](O)[C@H](O)CO [D-allulose, D-ribo-2-hexulose]",,,active,100%,
O=C(CO)[C@@H](O)[C@@H](O)[C@H](O)CO [D-tagatose],,,active,40.7%,20 to 25%
"O=C(CO)[C@@H](O)[C@H](O)[C@H](O)CO [Fructose, D-fructose]",,,active,63.9%,
[K+] [K^+],113%,,,,
[Mg+2] [Mg^2+],130%,enhance the enzyme activity,,,
[Mn+2] [Mn^2+],168%,enhance the enzyme activity,,,
[Na+] [Na^+],120%,,,,
"O=C(CO)[C@H](O)[C@@H](O)[C@H](O)CO [Sorbose, D-sorbose]",,,active,21%,
[Zn+2] [Zn^2+],0%,inhibit the enzyme activity,,,
